Converted amounts (≈) assume the structure as drawn. The source made the active and inactive calls. The calls are words filed in the database; no cut-off is given here.
How the values were obtained:
[1] = target: Calcium/calmodulin-dependent protein kinase type 1 (Homo sapiens) (UniProt Q14012); assay: Inhibition of human CAMK1 at 1 uM relative to control
[2] = system: MIA PaCa-2; assay: Cell cycle arrest in human MIA PaCa-2 cells assessed as accumulation at G1 phase at 0.8 uM (reference value: 44.09 %); format: functional
[3] = system: MIA PaCa-2; assay: Cell cycle arrest in human MIA PaCa-2 cells assessed as accumulation at G2 phase at 1.6 uM (reference value: 10.64 %); format: functional
[4] = system: MIA PaCa-2; assay: Cell cycle arrest in human MIA PaCa-2 cells assessed as accumulation at S phase at 2.5 uM (reference value: 45.27 %); format: functional
[5] = target: Dual specificity protein kinase TTK (Homo sapiens) (UniProt P33981); assay: Inhibition of human TTK at 1 uM relative to control
[6] = target: CDK6/cyclin D1 (Homo sapiens) (UniProt P24385+Q00534); assay: Inhibition of human CDK6/cyclin D1 at 1 uM relative to control; format: protein-complex assay
[7] = Metabolic stability in rat liver microsomes assessed as half life; format: ADME, Microsome
[8] = system: MIA PaCa-2; assay: Cell cycle arrest in human MIA PaCa-2 cells assessed as accumulation at G1 phase; format: functional, cell-based; details: dose 0.8-2.5 µM
[9] = Permeability of the compound at pH 7.4 by PAMPA; format: ADME; details: read-out: permeability
[10] = target: Cyclin-dependent kinase 4/cyclin D1 (Homo sapiens) (UniProt P11802+P24385); assay: Inhibition of human CDK4/cyclin D1 at 1 uM relative to control; format: protein-complex assay
[11] = Metabolic stability in human liver microsomes assessed as half life; format: ADME, Microsome
[12] = system: MIA PaCa-2; assay: Cell cycle arrest in human MIA PaCa-2 cells assessed as accumulation at G2 phase at 0.8 uM (reference value: 10.64 %); format: functional
[13] = system: MIA PaCa-2; assay: Potency index, ratio of ribociclib IC50 to test compound IC50 for antiproliferative activity against human MIA PaCa-2 cells by MTT assay; format: functional
[14] = system: MIA PaCa-2; assay: Antiproliferative activity against human MIA PaCa-2 cells assessed as inhibition of cell proliferation at 1 uM in presence of PI3K/mTOR inhibitor, BEZ235; format: functional, cell-based
[15] = system: MIA PaCa-2; assay: Antiproliferative activity against human MIA PaCa-2 cells assessed as inhibition of cell growth by MTT assay; format: functional, cell-based
[16] = Permeability of the compound at pH 5.0 by PAMPA; format: ADME; details: read-out: permeability
[17] = system: MIA PaCa-2; assay: Cell cycle arrest in human MIA PaCa-2 cells assessed as accumulation at G1 phase at 1.6 uM (reference value: 44.09 %); format: functional
[18] = Solubility of the compound at pH 7.4; format: physicochemical; details: buffer
[19] = target: CDK4/Cyclin D3 (Homo sapiens) (UniProt P11802+P30281); assay: Inhibition of human CDK4/cyclin D3 at 1 uM relative to control; format: protein-complex assay
[20] = target: CDK6/cyclin D1 (Homo sapiens, UniProt Q00534); assay: Inhibition of CDK6/cyclin D1 (unknown origin); format: protein-complex assay
[21] = target: Cyclin-dependent kinase 4 (Homo sapiens) (UniProt P11802); assay: Inhibition of CDK4 (unknown origin) at 1 uM
[22] = system: MIA PaCa-2; assay: Cell cycle arrest in human MIA PaCa-2 cells assessed as accumulation at G1 phase at 2.5 uM (reference value: 44.09 %); format: functional
[23] = target: Cyclin-dependent kinase 4/cyclin D1 (Homo sapiens, UniProt P11802); assay: Inhibition of CDK4/cyclin D1 (unknown origin); format: protein-complex assay
[24] = system: MIA PaCa-2; assay: Antiproliferative activity against human MIA PaCa-2 cells assessed as inhibition of cell proliferation at 0.5 uM in presence of 10 to 20 nM PI3K/mTOR inhibitor, BEZ235; format: functional, cell-based
[25] = target: Mitogen-activated protein kinase kinase kinase 9 (Homo sapiens) (UniProt P80192); assay: Inhibition of human MLK1 at 1 uM relative to control
[26] = target: Calcium/calmodulin-dependent protein kinase kinase 1 (Homo sapiens) (UniProt Q8N5S9); assay: Inhibition of human CAMKKA at 1 uM relative to control
[27] = system: MIA PaCa-2; assay: Cell cycle arrest in human MIA PaCa-2 cells assessed as accumulation at S phase at 0.8 uM (reference value: 45.27 %); format: functional
[28] = system: BXPC-3; assay: Antiproliferative activity against human BxPC-3 cells assessed as inhibition of cell growth by MTT assay; format: functional, cell-based
[29] = system: MIA PaCa-2; assay: Cell cycle arrest in human MIA PaCa-2 cells assessed as accumulation at S phase at 1.6 uM (reference value: 45.27 %); format: functional
[30] = target: Cyclin-dependent kinase 6 (Homo sapiens) (UniProt Q00534); assay: Inhibition of CDK6 (unknown origin) at 1 uM
[31] = target: Tyrosine-protein kinase Fer (Homo sapiens) (UniProt P16591); assay: Inhibition of human FER at 1 uM relative to control
[32] = system: MIA PaCa-2; assay: Cell cycle arrest in human MIA PaCa-2 cells assessed as accumulation at G2 phase at 2.5 uM (reference value: 10.64 %); format: functional

Tyrosine-protein kinase Fer (Homo sapiens), sequence (P16591 whole entry, looked up): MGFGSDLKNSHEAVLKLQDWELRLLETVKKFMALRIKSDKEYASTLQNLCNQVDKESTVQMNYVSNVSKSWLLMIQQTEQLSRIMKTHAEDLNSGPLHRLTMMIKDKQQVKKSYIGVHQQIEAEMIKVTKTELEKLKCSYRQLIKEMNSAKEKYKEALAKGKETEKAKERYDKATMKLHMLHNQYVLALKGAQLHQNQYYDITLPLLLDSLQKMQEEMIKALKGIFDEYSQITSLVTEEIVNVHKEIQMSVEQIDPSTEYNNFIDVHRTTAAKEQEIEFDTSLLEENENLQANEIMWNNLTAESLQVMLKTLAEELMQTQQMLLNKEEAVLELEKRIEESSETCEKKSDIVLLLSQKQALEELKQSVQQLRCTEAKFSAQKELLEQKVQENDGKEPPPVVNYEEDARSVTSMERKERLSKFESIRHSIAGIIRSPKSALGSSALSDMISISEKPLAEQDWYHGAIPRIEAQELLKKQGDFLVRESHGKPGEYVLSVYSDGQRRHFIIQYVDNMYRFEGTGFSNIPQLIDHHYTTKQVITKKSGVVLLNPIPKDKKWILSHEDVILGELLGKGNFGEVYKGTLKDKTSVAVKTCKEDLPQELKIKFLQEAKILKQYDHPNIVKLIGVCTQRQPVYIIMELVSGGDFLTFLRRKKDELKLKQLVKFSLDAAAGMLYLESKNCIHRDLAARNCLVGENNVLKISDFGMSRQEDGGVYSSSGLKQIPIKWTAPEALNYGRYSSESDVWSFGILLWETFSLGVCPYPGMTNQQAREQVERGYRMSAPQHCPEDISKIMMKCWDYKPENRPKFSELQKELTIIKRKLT
CDK6/cyclin D1, sequence (P24385 whole entry): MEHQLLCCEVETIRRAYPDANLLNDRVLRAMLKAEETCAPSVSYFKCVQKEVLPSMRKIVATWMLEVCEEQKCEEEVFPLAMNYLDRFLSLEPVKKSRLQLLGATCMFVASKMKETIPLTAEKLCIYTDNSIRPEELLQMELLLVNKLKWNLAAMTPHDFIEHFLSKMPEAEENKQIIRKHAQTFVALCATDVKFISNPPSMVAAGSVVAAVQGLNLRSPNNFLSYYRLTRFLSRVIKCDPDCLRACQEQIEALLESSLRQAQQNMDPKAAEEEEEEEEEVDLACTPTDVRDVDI
CDK6/cyclin D1, sequence (Q00534 whole entry): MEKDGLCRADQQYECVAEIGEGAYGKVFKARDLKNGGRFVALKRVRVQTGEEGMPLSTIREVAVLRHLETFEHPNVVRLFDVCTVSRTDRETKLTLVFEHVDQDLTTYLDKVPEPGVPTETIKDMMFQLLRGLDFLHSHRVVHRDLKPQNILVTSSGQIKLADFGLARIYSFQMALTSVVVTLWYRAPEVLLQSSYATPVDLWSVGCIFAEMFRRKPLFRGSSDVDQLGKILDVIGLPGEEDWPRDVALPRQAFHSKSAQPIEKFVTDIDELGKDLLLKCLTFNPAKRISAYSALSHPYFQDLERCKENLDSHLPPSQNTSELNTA
Mitogen-activated protein kinase kinase kinase 9 (Homo sapiens), sequence (P80192 whole entry, looked up): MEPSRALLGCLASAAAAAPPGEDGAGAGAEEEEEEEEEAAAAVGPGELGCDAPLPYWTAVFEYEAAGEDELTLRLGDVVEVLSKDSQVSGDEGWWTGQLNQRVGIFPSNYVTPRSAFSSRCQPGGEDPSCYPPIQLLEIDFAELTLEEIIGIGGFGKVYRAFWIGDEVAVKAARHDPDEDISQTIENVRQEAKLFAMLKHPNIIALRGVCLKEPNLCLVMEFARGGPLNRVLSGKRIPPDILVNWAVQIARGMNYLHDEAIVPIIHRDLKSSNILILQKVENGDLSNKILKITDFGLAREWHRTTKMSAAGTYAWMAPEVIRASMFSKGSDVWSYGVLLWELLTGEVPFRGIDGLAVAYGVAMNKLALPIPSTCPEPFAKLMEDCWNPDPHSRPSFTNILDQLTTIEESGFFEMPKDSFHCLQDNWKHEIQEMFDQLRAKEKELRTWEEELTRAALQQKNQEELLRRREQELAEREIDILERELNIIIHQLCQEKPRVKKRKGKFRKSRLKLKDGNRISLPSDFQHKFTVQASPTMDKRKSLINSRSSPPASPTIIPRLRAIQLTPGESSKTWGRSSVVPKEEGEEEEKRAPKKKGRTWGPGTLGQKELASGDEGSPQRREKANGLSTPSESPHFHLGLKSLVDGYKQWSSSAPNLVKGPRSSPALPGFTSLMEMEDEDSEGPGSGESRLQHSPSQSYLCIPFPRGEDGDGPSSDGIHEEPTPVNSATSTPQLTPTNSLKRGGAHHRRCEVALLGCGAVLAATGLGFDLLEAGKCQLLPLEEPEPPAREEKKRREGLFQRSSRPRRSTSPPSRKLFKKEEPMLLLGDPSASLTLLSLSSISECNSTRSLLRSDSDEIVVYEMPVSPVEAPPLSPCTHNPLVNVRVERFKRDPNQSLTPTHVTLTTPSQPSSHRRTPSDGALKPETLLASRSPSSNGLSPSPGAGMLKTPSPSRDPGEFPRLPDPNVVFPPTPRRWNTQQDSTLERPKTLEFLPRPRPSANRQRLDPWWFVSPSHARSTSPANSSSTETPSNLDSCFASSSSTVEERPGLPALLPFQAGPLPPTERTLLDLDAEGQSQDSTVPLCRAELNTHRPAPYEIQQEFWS
Dual specificity protein kinase TTK (Homo sapiens), sequence (P33981 whole entry): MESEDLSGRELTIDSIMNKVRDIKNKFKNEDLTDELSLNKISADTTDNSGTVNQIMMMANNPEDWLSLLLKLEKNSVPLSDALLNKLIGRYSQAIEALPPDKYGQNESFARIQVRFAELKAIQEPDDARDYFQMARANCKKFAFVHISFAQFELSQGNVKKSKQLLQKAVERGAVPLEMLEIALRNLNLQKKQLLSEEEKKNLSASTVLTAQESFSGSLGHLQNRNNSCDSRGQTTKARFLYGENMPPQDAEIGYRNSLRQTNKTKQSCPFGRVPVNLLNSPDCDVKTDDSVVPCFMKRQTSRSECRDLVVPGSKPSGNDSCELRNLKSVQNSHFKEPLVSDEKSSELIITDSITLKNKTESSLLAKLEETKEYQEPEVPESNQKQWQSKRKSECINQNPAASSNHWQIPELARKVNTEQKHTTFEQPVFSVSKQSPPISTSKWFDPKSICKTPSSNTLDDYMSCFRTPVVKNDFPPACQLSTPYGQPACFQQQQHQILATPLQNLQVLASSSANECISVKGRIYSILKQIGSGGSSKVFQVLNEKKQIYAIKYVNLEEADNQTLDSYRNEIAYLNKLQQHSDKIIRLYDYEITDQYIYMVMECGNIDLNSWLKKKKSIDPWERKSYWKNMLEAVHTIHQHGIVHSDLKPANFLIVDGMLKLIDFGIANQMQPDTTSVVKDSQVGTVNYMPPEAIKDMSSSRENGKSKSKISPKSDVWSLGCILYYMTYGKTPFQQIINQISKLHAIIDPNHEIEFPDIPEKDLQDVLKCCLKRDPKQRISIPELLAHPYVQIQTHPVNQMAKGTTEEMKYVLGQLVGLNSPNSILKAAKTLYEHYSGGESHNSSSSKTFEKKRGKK
Cyclin-dependent kinase 6 (Homo sapiens), sequence (Q00534 whole entry): as the sequence (Q00534 whole entry) above
Calcium/calmodulin-dependent protein kinase kinase 1 (Homo sapiens), sequence (Q8N5S9 whole entry, looked up): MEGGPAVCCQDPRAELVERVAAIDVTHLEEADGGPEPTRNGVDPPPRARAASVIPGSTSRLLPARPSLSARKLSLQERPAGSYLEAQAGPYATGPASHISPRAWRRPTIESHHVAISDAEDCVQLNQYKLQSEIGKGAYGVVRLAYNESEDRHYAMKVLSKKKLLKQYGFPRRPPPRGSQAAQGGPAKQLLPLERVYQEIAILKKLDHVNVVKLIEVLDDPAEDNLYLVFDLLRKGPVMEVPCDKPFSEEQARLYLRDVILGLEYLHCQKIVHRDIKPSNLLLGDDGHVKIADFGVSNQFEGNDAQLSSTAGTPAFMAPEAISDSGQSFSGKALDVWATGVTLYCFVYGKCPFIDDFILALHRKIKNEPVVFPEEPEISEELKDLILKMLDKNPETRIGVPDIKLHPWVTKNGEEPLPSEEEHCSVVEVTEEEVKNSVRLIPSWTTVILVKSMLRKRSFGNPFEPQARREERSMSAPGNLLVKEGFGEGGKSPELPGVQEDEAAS
Cyclin-dependent kinase 4 (Homo sapiens), sequence (P11802 whole entry): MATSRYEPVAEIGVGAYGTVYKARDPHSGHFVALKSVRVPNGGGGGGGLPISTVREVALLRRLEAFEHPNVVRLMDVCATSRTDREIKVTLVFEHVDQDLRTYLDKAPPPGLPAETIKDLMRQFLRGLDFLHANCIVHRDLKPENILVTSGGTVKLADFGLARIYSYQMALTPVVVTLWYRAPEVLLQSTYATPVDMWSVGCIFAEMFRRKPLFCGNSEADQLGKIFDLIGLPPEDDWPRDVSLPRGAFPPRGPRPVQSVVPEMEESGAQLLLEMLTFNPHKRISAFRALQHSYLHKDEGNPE
Cyclin-dependent kinase 4/cyclin D1, sequence (P11802 whole entry): as above
Cyclin-dependent kinase 4/cyclin D1, sequence (P24385 whole entry, further chain): as the sequence (P24385 whole entry) above
Calcium/calmodulin-dependent protein kinase type 1 (Homo sapiens), sequence (Q14012 whole entry, looked up): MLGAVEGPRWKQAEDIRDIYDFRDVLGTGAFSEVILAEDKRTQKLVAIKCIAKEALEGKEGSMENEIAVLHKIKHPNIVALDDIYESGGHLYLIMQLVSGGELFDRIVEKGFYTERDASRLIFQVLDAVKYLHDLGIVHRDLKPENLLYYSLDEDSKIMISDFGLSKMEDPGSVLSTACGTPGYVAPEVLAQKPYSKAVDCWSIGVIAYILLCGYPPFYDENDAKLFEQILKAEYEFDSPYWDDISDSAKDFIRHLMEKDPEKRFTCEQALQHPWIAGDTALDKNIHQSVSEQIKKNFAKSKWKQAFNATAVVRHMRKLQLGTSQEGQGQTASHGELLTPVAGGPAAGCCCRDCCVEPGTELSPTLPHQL

COc1ccccc1NC(=O)c1cc2cnc(Nc3ccc(N4CCNCC4)cn3)nc2n1C1CCCC1
inhibition [1]: > 80% | Activity [2]: 60% | Activity [3]: 3.69% | Activity [4]: 21.63% | inhibition [5]: > 80% | inhibition [6]: > 80% | half-life [7]: > 0.5 h | Activity [8]: Dose-dependent effect | Papp [9]: 464 ×10⁻⁶ cm/s | inhibition [10]: > 80% | half-life [11]: 1.21 h | Activity [12]: 4.85% | Ratio IC50 [13]: 10 | Activity [14]: Active | IC50 [15]: 1830 nM | Papp [16]: 517 ×10⁻⁶ cm/s | Activity [17]: 65.48% | solubility [18]: 1.1 µg/mL (≈ 2.15 µM) | inhibition [19]: > 80% | IC50 [20]: 52.3 nM | inhibition [21]: Active | Activity [22]: 74.31% | IC50 [23]: 20.5 nM | Activity [24]: Active | inhibition [25]: > 80% | inhibition [26]: > 80% | Activity [27]: 35.15% | IC50 [28]: 4120 nM | Activity [29]: 30.8% | inhibition [30]: Active | inhibition [31]: > 80% | Activity [32]: 4.06%
